# Laboratory results from patent US20150336996A1, “MANGANESE-BASED MAGNETIC RESONANCE CONTRAST AGENTS” (THE GENERAL HOSPITAL CORPORATION, priority 2013, published 2015).
# Legend:
# Type in all cases: physicochemical
# [1] = UV spectrum as a function of pH (phenol deprotonation pKa); details: fit of UV absorbance vs pH
# Procedure: To probe the speciation of the manganese complexes in solution, pH titrations of 1:1 Mn^2+:ligand were performed using a 1 N NaOH under N2 atmosphere (FIG. 21).
# To determine the species that exists in these two pH ranges the UV spectrum as a function of pH was monitored (see FIGS. 22-24).
# [2] = T1 relaxivity (r1) by inversion recovery on Bruker mq60 Minispec, 1.4 T, 37° C., TRIS buffer pH 7.4
# Procedure: (§1) Liquid chromatography-electrospray mass spectrometry (LC-MS) was performed using an Agilent 1100 Series apparatus with an LC/MSD trap and Daly conversion dynode detector with UV detection at 220, 254 and 280 nm. The methods used on this system are as follows: (a) Luna C18 column (100×2 mm); eluent A: H2O/0.1% formic acid, B: MeCN/0.1% formic acid; gradient: 5% B to 95% B over 9 minutes; flow rate 0.8 mL/min (used for characterization of organic compounds), and (b) Kromasil C18 column (250×4.6 mm); eluent C: 95% MeCN/5% 10 mM ammonium acetate, D: 10 mM ammonium acetate; gradient 5% C to 8% C over 14 minutes; flow rate 0.8 ml/min (used for characterization of manganese complexes). Reversed-phase semipreparative purification was performed on a Rainin Dynamax HPLC system with UV detection at 254 nm using a Polaris C18 column. The method used for purification is as follows: The mobile phase A was 50 mM ammonium acetate buffer, pH 6.5 and mobile phase B was a mixture of 5% 50 mM ammonium acetate buffer, pH 6.5/95% MeCN. Starting from 5% B, the fraction of B increased to 8% over 23 minutes. The column was washed with 100% B for 2 minutes and then ramped to 5% B. The system was re-equilibrated at 5% B for 3 minutes. Relaxivity measurements were performed on a Bruker mq60 Minispec at 1.4 T and 37° C. Manganese concentrations were determined using an Agilent 7500a ICP-MS system. All samples were diluted with 0.1% Triton X-100 in 5% nitric acid containing 20 ppb of Lu (as internal standard). The ratio of Mn (54.94)/Lu(174.97) was used to quantify the manganese concentration. A linear calibration curve ranging from 0.1 ppb to 200 ppb was generated daily for the quantification. UV-Vis spectra were recorded on a SpectraMax M2 spectrophotometer using quartz cuvette with a 1 cm path length. Cyclic voltammetry of Mn^IIHBET, Mn^IIEDTA and Mn^IIIHBET was recorded using a Nuvant EZstat pro potentiostat in TRIS buffer (pH=7.4), containing 0.5M KNO3 as supporting electrolyte, at 100 mVs-1 scan rate. Glassy carbon was used as the working electrode, Ag/AgCl served as the reference electrode and Pt wire was used as the auxiliary electrode. The K4FeCN6/K3FeCN6 couple was used as the internal standard.
# T1 was measured with an inversion recovery pulse sequence taking 10 inversion times. Relaxivity was determined from the slope of a plot of 1/T1 vs. concentration of in TRIS buffer, pH=7.4 at 37° C. The concentration of manganese in each stock solution was determined using ICP-MS.
# All chemicals and solvents were purchased commercially and used without further purification. NMR spectra were recorded on either a 500 MHz or 400 MHz Varian spectrometers. Chemical shifts are reported in δ (ppm). For ^1H and ^13C NMR spectra, the residual solvent peaks were used as internal reference, except for the ^13C NMR of the ligand where tertiary-butanol was used as the internal reference. Liquid chromatography-electrospray mass spectrometry (LC-MS) was performed using an Agilent 1100 Series apparatus with an LC/MSD trap and Daly conversion dynode detector with UV detection at 220, 254 and 280 nm. The methods used on this system are as follows: (a) Luna C18 column (100×2 mm); eluent A: H2O/0.1% formic acid, B: MeCN/0.1% formic acid; gradient: 5% B to 95% B over 9 minutes; flow rate 0.8 mL/min (used for characterization of organic compounds), and (b) Kromasil C18 column (250×4.6 mm); eluent C: 95% MeCN/5% 10 mM ammonium acetate, D: 10 mM ammonium acetate; gradient 5% C to 8% C over 14 minutes; flow rate 0.8 ml/min (used for characterization of manganese complexes). Reversed-phase semipreparative purification was performed on the Rainin Dynamax HPLC system with UV detection at 254 nm using a Polaris C18 column. The method used for purification is as follows: The mobile phase A was 50 mM ammonium acetate buffer, pH 6.5 and mobile phase B was a mixture of 5% 50 mM ammonium acetate buffer, pH 6.5/95% MeCN. Starting from 5% B, the fraction of B increased to 8% over 23 minutes. […]
# [3] = Stability of manganese complexes in buffers
# Procedure: The stability of the manganese complexes were measured in different buffers using concentrations similar to those found in the blood plasma (1 mM phosphate buffer, 25 mM sodium bicarbonate buffer and 0.1 mM citrate buffer). A solution, 0.5 mM, of the manganese complex was incubated in the respective buffers at 37° C. (pH=7.4) and the species were then quantified on the LC-MS using the method as described earlier. The manganese complexes (0.5 mM) were also treated with EDTA (0.5 mM) in TRIS buffer (pH=7.4) and incubated at 37° C. for 1 hour. The species were then quantified on the LC-MS using the method as described earlier.
# [4] = T1 measurement by MR imaging at 4.7 T (Bruker Biospec); details: room temperature, pH 7.4 TRIS buffer
# Procedure: Right: relaxivities measured at room temperature at 4.7 T.
# MR imaging was performed using a Bruker Biospec 4.7T system. Three samples (˜500 μL) were placed in a homemade sample holder and imaged using a volume coil. Acquisition matrix=64×256 for 0.234×0.312 mm^2 in-plane resolution; slice thickness=5 mm. T1-weighted images were obtained with a fast low angle shot (FLASH) gradient echo sequence: TR/TE/FA=20/5.44/40° with 8 averages. T1 was determined using a 2D rapid acquisition refocused echo (RARE) inversion recovery sequence: TR=3200 ms, TE=9.7 ms. Inversion times (TI): 5, 45, 85, 165, 325, 645, 1285, 1925 and 3205 ms. T1 was obtained from a nonlinear least square fit of the signal intensity (SI(t)) vs. TI curve where T1, SI(0) and a are adjustable parameters, equation S2.
# SI(t)=SI(0)[1−α,e^TI/T1] (eq. S2)
# [5] = Cyclic voltammetry of the Mn(III)/Mn(II) redox couple
# Procedure: Potentials are vs. K4Fe(CN)6/K3Fe(CN)6; and in (b), a Cottrell plot of the Mn^2+/Mn^3+ couple—ia, (decreasing line) and ic (increasing line) vs. √v, where v=scan rate.
# as §1
compound,measurement,setting,value
"O=C([O-])CN(CCN(CC(=O)[O-])Cc1ccccc1[O-])CC(=O)[O-].[Mn+2].[Na+].[Na+] [Compound 4, Na2[Mn^IIHBET]]",pKa for ionization of the phenol,[1],7.64
same,T1 relaxivities,"[2]; 1.4 T, Tris buffered saline pH 7.4, 37° C.",2.76 mM⁻¹ s⁻¹
same,r1 (relaxivity of manganese complexes),"[2]; pH 7.4, 37° C., 1.4 Tesla",2.76 mM⁻¹ s⁻¹
same,stability in phosphate and carbonate buffers,[3],stable
same,fold higher relaxivity of reduced Mn^II-HBET form vs Mn^III-HBET,[4],3.3 fold
same,reversible oxidation peak,"[5]; TRIS buffer pH 7.4, vs. K4Fe(CN)6/K3Fe(CN)6",0.356 V
same,Half-cell potential vs. normal hydrogen electrode (NHE),"[5]; pH 7.4, vs. NHE",379 mV
